According to US9242883B2, “Pre-treatment of sludge” (THE UNIVERSITY OF QUEENSLAND, priority 2011, dated 2016):
Where “and” joins values, the source holds several entries; their conditions need not be identical. Equal entries are not always repeated. Where two headings read alike, the source gives them in different places.

How the values were obtained:
denitrifying biomass [1] = conditions: for methanol consumption rate / nitrate consumption rate / methanol consumption rate, activity recovery / nitrate consumption rate, activity recovery: experimental reactor
Description: Methanol provided the carbon source and nitrate provided the electron acceptor. The following procedure was followed:
1. Sludge removed from the denitrifying SBR (sequencing batch reactor). The biomass was enriched for 5 months in an 8 L reactor with methanol as the carbon source and nitrate as the electron acceptor.
2. A batch experiment was performed at pH 6 for initial biomass activity determination. At the beginning of the test, nitrate and methanol were added. Liquid phase samples were taken every 15 minutes for the analysis of nitrate and methanol. The consumption rates of methanol and nitrate were determined. All other batch tests described below were also conducted at pH 6. 3. Fresh sludge of 2 L was removed from the SBR at the end of a cycle, and equally divided into two batch reactors, namely the control and the experimental reactors. • a. The sludge in the control reactor was kept at pH 6 under mixed conditions for 48 hours; • b. The sludge in the experimental reactor was kept at pH 6 under mixed conditions for 48 hours. […] 4. 24 hours after the above conditions were started, sludge samples of 250 mL each were removed from both the control and the experimental reactors, and batch experiments as described in Step 2 were performed. Before the addition of nitrate and methanol, the sludges were washed with effluent from the parent SBR to ensure that both sludge samples were nitrite-free. 5. The above tests were repeated at 48 hours. 6. Sludge samples were also removed at 48 hours from both reactors to quantify the live/dead cells using the Live/Dead BacLight Bacterial Viability assay. 7. At 48 hours, the experimental reactor was washed with the effluent from the parent SBR to remove the residual nitrite. Nitrate and methanol were then added to the reactor resulting in concentrations of […] and 150 mg/L, respectively. The methanol and nitrate consumptions rates at the end of Day 3, Day 4 and Day 7 were measured through measuring the nitrate and methanol concentrations over a period over one hour each time. […] Experiments with Full-Scale Sludge

AOB, NOB and OHOs = conditions: FNA 0.22-2.47 mgN/L, pH 6, 24 h exposure
Description: Sludge was taken out from the parent reactor (SBR) at the end of an aerobic period and then transferred into a batch reactor. Afterwards, ammonium and nitrite stock solutions were added to the batch reactor, resulting in the ammonium and nitrite concentrations of 25 mg NH4-N/L and 20 mg NO2-N/L, respectively. Air was supplied during the whole experiment period (DO was not limiting, i.e. >3 mg/L). pH was controlled in the range of 7.5-8 during the whole experimental period. The activities of AOB and NOB were determined as biomass-specific nitrite+nitrate and nitrate production rates, respectively.
Sludge was taken out from the parent reactor at the end of an aerobic period and then transferred into a batch reactor. Afterwards, sodium acetate and ammonium stock solutions were added to the batch reactor, resulting in the COD and ammonium concentrations of 150 mg COD/L and 20 NH4-N/L, respectively. Air was supplied during the whole experiment period (DO was not limiting, i.e. >3 mg/L). pH was controlled in the range of 7.5-8 during the whole experimental period. The aerobic activity of OHO was determined as biomass-specific COD consumption rates.
The experimental conditions applied in batch testing are set out in Table 6.

[2] = tested on: bacteria in a full-scale sludge; conditions: FNA treated, 48 hours, 500 mgNO2-N/L, pH 6.0, 29 images
Description: Similar tests were performed on a full-scale sludge. However, no activity tests were carried out. […] The nitrite concentration applied to the experimental reactor was 500 mgNO2-N/L. pH was maintained at 6.0 in both the control and experimental reactors.

denitrifying biomass [3] = conditions: methanol sludge, experimental reactor, 48 hours, FNA approx. 0.97 ppm, pH 6; 16 images
Description: 2. A batch experiment was performed at pH 6 for initial biomass activity determination. At the beginning of the test, nitrate and methanol were added. Liquid phase samples were taken every 15 minutes for the analysis of nitrate and methanol. The consumption rates of methanol and nitrate were determined. All other batch tests described below were also conducted at pH 6. 3. Fresh sludge of 2 L was removed from the SBR at the end of a cycle, and equally divided into two batch reactors, namely the control and the experimental reactors. • a. The sludge in the control reactor was kept at pH 6 under mixed conditions for 48 hours; • b. The sludge in the experimental reactor was kept at pH 6 under mixed conditions for 48 hours. […] 4. 24 hours after the above conditions were started, sludge samples of 250 mL each were removed from both the control and the experimental reactors, and batch experiments as described in Step 2 were performed. […] Sludge samples were also removed at 48 hours from both reactors to quantify the live/dead cells using the Live/Dead BacLight Bacterial Viability assay. […] The methanol and nitrate consumptions rates at the end of Day 3, Day 4 and Day 7 were measured through measuring the nitrate and methanol concentrations over a period over one hour each time. […]

[4] = Description: In this experiment, a lab-scale sequencing batch reactor (SBR) with a working volume of 8 L was used in this study. The SBR was operated with a cycle time of 6-h, consisting of 10 min anoxic feed, 70 min anoxic reaction, 225 min aerobic reaction, 5 min sludge wasting, 45 min settling and 5 min decanting periods. In each cycle, 2 L of synthetic wastewater containing 400 mg COD and 50 mgN/L TKN including 40 mgNH4+-N/L, made from milk powder and ammonium chloride, along with other trace elements, was pumped into the SBR in the 10 min feed period, resulting in a hydraulic retention time (HRT) of 24 h. Before settling, around 133 ml of mixed liquor was wasted, giving rise to a sludge retention time of 15 days. The SBR was operated at a temperature of 18±2° C., with DO being controlled between 1.5-2.0 mg/L by a programmable logic controller (PLC) in the aerobic period.
50% of the wasted mixed liquor was treated by 2.0 mg HNO2-N/L for approximately 24 h, 30 h, 36 h and 42 h, respectively.
The sludge wasted from the SBR was allowed to settle. […] The other 50% of the sludge was sent to disposal.
A control SBR operating under identical conditions was also fed with the same wastewater, but there was no recycle of any sludge to this reactor.

[5] = tested on: secondary sludge (enriched methonal-utilising denitrifiers culture)
Description: (§1) In general, primary sludge is readily hydrolysable (Mahmood and Elliott, 2006; Foladori et al., 2010). […] A series of batch tests were conducted through the use of an enriched methonal-utilising denitrifiers culture, which was employed as secondary sludge in this study.

[6] = tested on: secondary sludge (denitrifying microorganisms)
Description: as §1

secondary sludge = conditions: famine conditions, during FNA treatment (FIG. 4)
Source text: NH4+ release rate under famine conditions is an indication of the hydrolysis of intracellular compounds release during the decay of dying cells. This hydrolysis is taken place by the activity of other living microorganisms present in the sludge.

[7] = Day 1 of exposure, 500 mg NO2-N/L, pH 6, FNA approx. 0.97 ppm
[8] = Day 2 (48 h exposure; time when recovery started), FNA approx. 0.97 ppm, pH 6
[9] = Day 3, after 48 h FNA exposure and nitrite wash-out
[10] = Day 4, after 48 h FNA exposure and nitrite wash-out
[11] = Day 7, after 48 h FNA exposure and nitrite wash-out

In the case of O=NO [FNA, free nitrous acid], the “loss of biomass activity” value (denitrifying biomass [1]; FNA approximately 1 ppm for 48 hours) is reported as 99%, the methanol consumption rate (denitrifying biomass [1]; [7]) is reported as 0.051 mg Methanol/gVSS*min and the nitrate consumption rate (denitrifying biomass [1]; [7]) is reported as 0.014 mg N—NO3^−/gVSS*min. For the same compound, the methanol consumption rate (denitrifying biomass [1]; [8]) was 0.0 mg Methanol/gVSS*min and 0 mg Methanol/gVSS*min, the nitrate consumption rate (denitrifying biomass [1]; [8]) was 0.004 mg N—NO3^−/gVSS*min and the “methanol consumption rate, activity recovery” value (denitrifying biomass [1]; [9]) was 0.133 mg Methanol/gVSS*min. The “nitrate consumption rate, activity recovery” value (denitrifying biomass [1]; [9]) was 0.004 mg N—NO3^−/gVSS*min, the “methanol consumption rate, activity recovery” value (denitrifying biomass [1]; [10]) was 0.067 mg Methanol/gVSS*min and the “nitrate consumption rate, activity recovery” value (denitrifying biomass [1]; [10]) was 0.022 mg N—NO3^−/gVSS*min. The “methanol consumption rate, activity recovery” value (denitrifying biomass [1]; [11]) was 0.235 mg Methanol/gVSS*min, the “nitrate consumption rate, activity recovery” value (denitrifying biomass [1]; [11]) was 0.089 mg N—NO3^−/gVSS*min and the “reduction of NOB and OHO compared to AOB” value (AOB, NOB and OHOs) was “significantly greater reduction in NOB”. For the same compound, the “Average (% dead cells)” value [2] was 63.6%, the “Average (% dead cells)” value (denitrifying biomass [3]) was 40.4% and the “MLSS Predicted if FNA did not improve sludge degradability” value ([4]; FNA reactor, steady state) was 2369 mg/L. The “MLVSS Predicted if FNA did not improve sludge degradability” value ([4]; FNA reactor, steady state) was 2274 mg/L, the “FNA treated sludge degraded in the reactor” value ([4]; mass balance analysis of MLSS and MLVSS) was “approximately 75%” and the “live cell fraction, effect of exposure time” value ([5]; 48 h of exposure vs shorter, biggest difference at highest FNA concentrations) was “Smaller live cell fraction”. For the same compound, the “fraction of viable cells, dependency on FNA concentration” value ([5]; exposure 8 h, 24 h, 48 h (FIG. 3)) was “decreased with increasing FNA concentration”, the “biomass (denitrification) activity recovery” value ([6]; longest exposure time to FNA, even at lowest FNA concentration) was “almost negligible” and the “biomass (denitrification) activity recovery” value ([6]; lower exposure time, 8 h to FNA) was “displays a recovery”. The “NH4+ release rate, dependency on FNA concentration” value (secondary sludge) was “decrease”.
